# Results: PMC2637922, “Active-Site Inhibitors of mTOR Target Rapamycin-Resistant Outputs of mTORC1 and mTORC2” (PLoS Biology, 2009)
# Experiments:
# [1] = system: Akt phosphorylation in wild-type MEFs; assay: Akt phosphorylation in primary wild-type MEFs (Western blot); type: cell-based, mouse; settings: long-term rapamycin (100 nM, 24 h)
# [2] = system: primary wild-type MEFs; assay: Cell proliferation assay (resazurin), wild-type MEFs; type: cell-based, mouse; settings: cultured 3 d, resazurin fluorescence
# Description: (§1) Wild-type and SIN1^−/− MEFs were plated in 96-well plates at approximately 30% confluence and left overnight to adhere.
# [3] = system: 4EBP1 bound to eIF4E in L6 myotube lysates; assay: Cap pull-down assay (m7GTP beads); type: cell-based
# Description: L6 myotubes from one well of a six-well plate were lysed in 300 μl of cap lysis buffer as described above. 50 μl of detergent-free cap lysis buffer and 20 μl of pre-washed cap beads were added to 150 μl of cleared lysate and incubated at 4 °C overnight with tumbling. The beads were washed twice with 400 μl of cap wash buffer (cap lysis buffer with 0.5% NP-40 instead of 1% NP-40) and twice with 500 μl of PBS. The beads were boiled in SDS-PAGE sample buffer and the retained proteins analyzed by Western blot. All antibodies were from Cell Signaling Technologies except for the anti-eIF4E antibody, which was from BD Biosciences.
# [4] = system: cap-dependent and IRES-dependent translation in primary MEFs; assay: Bicistronic reporter assay; type: cell-based, mouse; settings: overnight, 10% serum
# Description: Primary MEFs were transfected with a bicistronic reporter [54] containing a viral IRES using Lipofectamine 2000 according to the manufacturers protocol. At 2 d post transfection, cells were treated overnight with compounds as indicated or starved of serum. The next day, Renilla and Firefly luciferase activity were measured using the Dual-Luciferase kit (Promega). Differences in the ratio of Renilla to Firefly luciferase signals were analyzed for statistical significance by one-way ANOVA with Tukey's post test using the Prism software package.
# [5] = system: new protein synthesis in primary MEFs; assay: 35S labeling of new protein synthesis; type: cell-based, mouse; settings: overnight
# Description: Primary MEFs grown to 70% confluence in six-well plates were incubated overnight in either 10% Serum (Steady State), kinase inhibitors in 10% serum, or 0.1% serum (starved). Cells were then washed once with DMEM lacking cysteine and methionine (DMEM-noS), and the medium was replaced with DMEM-noS including dialyzed serum and kinase inhibitors as indicated. After incubation for 1 h, 50 μCi of Expre^35S^35S (NEN) was added to each well and the cells were labeled for 4 h. Cells were washed once with ice-cold PBS, and lysed as described above for Western blotting. Following separation by SDS-PAGE, and transfer to nitrocellulose, ^35S-labeled proteins were visualized by autoradiography with film. For quantitation, the membrane was exposed to a phosphorimager screen and the resulting image was quantified in ImageJ. Differences in ^35S incorporation were analyzed for statistical significance by one-way ANOVA with Tukey's post test using the Prism software package.
# [6] = system: Akt, S6 and 4EBP1 phosphorylation in fat, skeletal muscle, and liver; assay: In vivo drug treatment and Western blotting of insulin signaling; set-up: species or system C57BL/6 mice; settings: mice; for S6 phosphorylation, all tissues examined / phosphorylation of 4EBP1 on T36/45 and S65, all tissues examined: rapamycin 5 mg/kg or PP242 20 mg/kg IP
# Description: Drugs were prepared in 100 μl of vehicle containing 20% DMSO, 40% PEG-400, and 40% saline. Six-wk-old male C57BL/6 mice were fasted overnight prior to drug treatment. […] 15 min after the insulin injection, the mice were killed by CO2 asphyxiation followed by cervical dislocation. Tissues were harvested and frozen on liquid nitrogen in 200 μl of cap lysis buffer. The frozen tissue was thawed on ice, manually disrupted with a mortar and pestle, and then further processed with a micro tissue-homogenizer (Fisher PowerGen 125 with Omni-Tip probe). Protein concentration of the cleared lysate was measured by Bradford assay and 5–10 μg of protein was analyzed by Western blot as described above.
# [7] = system: SIN1−/− MEFs; assay: Cell proliferation assay (resazurin), SIN1−/− MEFs; settings: compared with PP242
# Description: as §1
# [8] = system: Akt phosphorylation in SIN1−/− MEFs; assay: Akt phosphorylation in primary SIN1−/− MEFs (Western blot); type: cell-based, mouse; settings: insulin, PIK-90 625 nM, BX-795 10 μM
# [9] = system: pT308 of S473A Akt in HEK293 cells; type: cell-based; settings: HEK293, insulin, 2.5 μM PP242
# [10] = system: Akt substrates GSK3α/β, TSC2, and FoxO1/O3a in L6 myotubes; assay: Akt substrate phosphorylation in L6 myotubes (Western blot); type: cell-based; settings: for phosphorylation of Akt and its substrates: insulin
# [11] = system: S6K, S6 and 4EBP1 phosphorylation in L6 myotubes; assay: mTORC1 substrate phosphorylation in L6 myotubes (Western blot); settings: Figure S3
# [12] = target: PKC-beta (Homo sapiens, UniProt P05771); settings: in vitro, purified protein
# Description: (§2) Phosphorylation of histone H1 (4 μM) by PKC was assayed in a buffer containing 200 ng/ml recombinant kinase, 25 mM HEPES pH 7.5, 10 mM MgCl2, 5 mM ß-glycerol phosphate, 0.05 mg/ml phosphatidylserine, 0.03% Triton X-100, 0.5 mg/ml BSA, 2.5 mM DTT, 100 μM CaCl2, 1 μM PMA, 10 μM ATP, and 15 μCi/ml of γ-^32P-ATP. Inhibitors were tested in a four-fold dilution series from 10 μM to 600 pM, and four measurements were made at each concentration. The kinase reaction was terminated by spotting onto nitrocellulose, which was washed 5 times with 1 M NaCl/1% phosphoric acid. The radioactivity remaining on the nitrocellulose sheet was quantified by phosphorimaging, and IC50 values were determined by fitting the data to a sigmoidal dose-response curve using the Prism software package.
# [13] = target: T1, PDK1 (Homo sapiens, UniProt O15530); assay: biochemical
# T1 sequence (O15530 1-556): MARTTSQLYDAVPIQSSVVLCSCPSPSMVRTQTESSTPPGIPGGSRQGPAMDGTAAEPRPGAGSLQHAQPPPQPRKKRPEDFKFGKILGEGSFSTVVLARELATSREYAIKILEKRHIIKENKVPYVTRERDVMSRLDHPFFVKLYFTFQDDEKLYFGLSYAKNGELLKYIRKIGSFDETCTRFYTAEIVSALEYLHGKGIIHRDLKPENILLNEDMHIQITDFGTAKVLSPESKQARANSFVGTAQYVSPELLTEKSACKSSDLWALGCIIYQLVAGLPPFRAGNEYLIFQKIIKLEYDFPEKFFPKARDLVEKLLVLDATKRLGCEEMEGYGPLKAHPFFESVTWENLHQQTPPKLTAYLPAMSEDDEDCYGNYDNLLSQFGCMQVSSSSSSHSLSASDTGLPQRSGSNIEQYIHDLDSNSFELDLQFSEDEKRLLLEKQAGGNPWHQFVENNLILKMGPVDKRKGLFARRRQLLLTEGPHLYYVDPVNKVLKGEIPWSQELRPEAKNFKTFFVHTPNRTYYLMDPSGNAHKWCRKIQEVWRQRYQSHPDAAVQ
# [14] = target: PKCβI (Homo sapiens, UniProt P05771); assay: biochemical
# Description: as §2
# [15] = target: PKCβII (Homo sapiens, UniProt P05771); assay: biochemical
# Sequence of PKCβII (P05771 1-673 isoform P05771-2): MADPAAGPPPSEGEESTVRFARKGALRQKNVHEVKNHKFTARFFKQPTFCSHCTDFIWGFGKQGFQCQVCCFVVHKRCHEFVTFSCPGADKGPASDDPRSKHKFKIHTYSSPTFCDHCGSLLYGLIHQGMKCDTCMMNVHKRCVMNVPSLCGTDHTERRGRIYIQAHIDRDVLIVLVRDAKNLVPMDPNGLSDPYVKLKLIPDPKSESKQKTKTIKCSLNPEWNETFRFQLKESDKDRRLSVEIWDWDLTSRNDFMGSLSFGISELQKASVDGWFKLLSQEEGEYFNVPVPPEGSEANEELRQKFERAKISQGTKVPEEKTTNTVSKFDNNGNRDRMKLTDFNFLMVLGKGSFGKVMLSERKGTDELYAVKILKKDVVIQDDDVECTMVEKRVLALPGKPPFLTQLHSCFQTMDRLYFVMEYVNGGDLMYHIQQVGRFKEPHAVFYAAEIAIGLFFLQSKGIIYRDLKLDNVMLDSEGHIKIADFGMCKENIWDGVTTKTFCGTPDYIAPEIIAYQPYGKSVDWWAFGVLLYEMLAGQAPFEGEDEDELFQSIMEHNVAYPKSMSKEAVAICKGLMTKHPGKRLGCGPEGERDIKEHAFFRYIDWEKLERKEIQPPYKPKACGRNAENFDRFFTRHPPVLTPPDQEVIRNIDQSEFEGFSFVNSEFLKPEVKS
# Description: as §2
# Sequence of PKC-beta (P05771 2-621 limits assumed): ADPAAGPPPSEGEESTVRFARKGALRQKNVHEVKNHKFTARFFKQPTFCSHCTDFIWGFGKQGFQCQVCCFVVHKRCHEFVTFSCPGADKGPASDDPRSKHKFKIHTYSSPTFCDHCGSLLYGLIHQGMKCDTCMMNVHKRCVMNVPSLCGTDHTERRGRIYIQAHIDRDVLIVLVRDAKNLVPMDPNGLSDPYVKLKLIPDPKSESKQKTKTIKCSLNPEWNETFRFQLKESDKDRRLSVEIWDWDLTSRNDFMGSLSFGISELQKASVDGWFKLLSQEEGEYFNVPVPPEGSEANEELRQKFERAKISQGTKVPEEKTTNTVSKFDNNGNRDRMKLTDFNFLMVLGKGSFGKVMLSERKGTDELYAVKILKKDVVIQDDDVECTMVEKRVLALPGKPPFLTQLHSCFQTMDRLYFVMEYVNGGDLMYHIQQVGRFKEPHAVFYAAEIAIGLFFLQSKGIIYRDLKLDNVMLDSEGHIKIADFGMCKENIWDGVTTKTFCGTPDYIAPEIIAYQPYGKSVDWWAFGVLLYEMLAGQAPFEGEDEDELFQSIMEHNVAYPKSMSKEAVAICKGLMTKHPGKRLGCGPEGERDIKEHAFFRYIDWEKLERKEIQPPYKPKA
# Sequence of PKCβI (P05771 whole entry): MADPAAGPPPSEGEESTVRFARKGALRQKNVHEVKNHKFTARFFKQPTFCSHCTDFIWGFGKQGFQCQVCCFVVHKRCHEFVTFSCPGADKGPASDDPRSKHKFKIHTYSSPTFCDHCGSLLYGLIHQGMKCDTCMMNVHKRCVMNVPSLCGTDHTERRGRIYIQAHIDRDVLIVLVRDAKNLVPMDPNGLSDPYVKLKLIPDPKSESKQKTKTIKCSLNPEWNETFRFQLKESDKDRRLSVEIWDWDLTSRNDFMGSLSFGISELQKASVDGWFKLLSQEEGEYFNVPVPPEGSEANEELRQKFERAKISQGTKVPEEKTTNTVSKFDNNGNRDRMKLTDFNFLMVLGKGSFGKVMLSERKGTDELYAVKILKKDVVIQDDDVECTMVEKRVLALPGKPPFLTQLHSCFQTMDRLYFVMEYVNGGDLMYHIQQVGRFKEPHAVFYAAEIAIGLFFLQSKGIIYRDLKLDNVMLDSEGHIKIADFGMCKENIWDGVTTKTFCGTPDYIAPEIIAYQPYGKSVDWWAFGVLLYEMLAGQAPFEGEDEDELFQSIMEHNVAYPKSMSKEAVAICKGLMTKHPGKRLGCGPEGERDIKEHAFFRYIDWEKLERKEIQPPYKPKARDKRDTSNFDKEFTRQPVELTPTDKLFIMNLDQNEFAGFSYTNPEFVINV
smiles,measurement,setting,value
CO[C@H]1C[C@@H]2CC[C@@H](C)[C@@](O)(O2)C(=O)C(=O)N2CCCC[C@H]2C(=O)O[C@H]([C@H](C)C[C@@H]2CC[C@@H](O)[C@H](OC)C2)CC(=O)[C@H](C)/C=C(\C)[C@@H](O)[C@@H](OC)C(=O)[C@H](C)C[C@H](C)/C=C/C=C/C=C/1C [rapamycin],Akt S473-P,[1],inhibited
same,Akt T308-P,[1],reduced
same,proliferation of primary MEFs,[2],inhibited growth to the same extent
same,insulin-stimulated release of 4EBP1 from eIF4E (retention on m7GTP beads),[3],partial inhibition
same,cap-dependent translation (renilla/firefly ratio),[4],did not have a statistically significant effect
same,reduction of total protein synthesis,[5],does not have a significant effect
same,"phosphorylation of Akt at S473 and T308, all tissues examined","[6]; acute rapamycin 5 mg/kg IP, insulin",activated
same,"S6 phosphorylation, all tissues examined",[6],fully inhibited
same,"phosphorylation of 4EBP1 on T36/45 and S65, all tissues examined",[6],did not block 4EBP1 phosphorylation as completely as PP242
same,blocking cell proliferation of SIN1−/− MEFs,[7],less effective at blocking cell proliferation than PP242
O=C(NCCCNc1nc(Nc2cccc(NC(=O)N3CCCC3)c2)ncc1I)c1cccs1 [BX-795],phosphorylation of Akt T308,[8],blocked
CC(C)n1nc(-c2cc3cc(O)ccc3[nH]2)c2c(N)ncnc21 [PP242],T308-P on S473A Akt,[9],not inhibited
same,phosphorylation of Akt T308,[8],no effect
same,reduction of total protein synthesis,[5],about 30%
same,phosphorylation of Akt at S473 and T308 in fat and liver,"[6]; PP242 20 mg/kg IP, insulin",completely inhibit
same,phosphorylation of Akt in skeletal muscle,"[6]; PP242 20 mg/kg IP, insulin",only partially able to inhibit
same,"S6 phosphorylation, all tissues examined",[6],fully inhibited
same,"phosphorylation of 4EBP1 on T36/45 and S65, all tissues examined",[6],effective at blocking
COc1ccc2c(c1OC)N=C(NC(=O)c1cccnc1)N1CCN=C21 [PIK-90],phosphorylation of Akt T308,[8],blocked
same,phosphorylation of Akt and its substrates,[10],completely inhibited
same,phosphorylation of 4EBP1 at T36/45,[11],did not reduce
CC(C)n1nc(-c2cccc(C(=O)NC3=NCCS3)c2)c2c(N)ncnc21 [PP30],activity against PKC-beta,[12],no activity
same,IC50,[13],> 10 µM
same,IC50,[14],> 10 µM
same,IC50,[15],> 10 µM
O=c1[nH]c2ccccc2n1C1CCN(Cc2ccc(-c3nc4cc5nc[nH]c5cc4nc3-c3ccccc3)cc2)CC1 [Akti-1/2],FoxO1/O3a phosphorylation at T24/T32,[10],inhibits
same,phosphorylation of Akt and its substrates,[10],completely inhibited
